{
  "source": "patent US20150258168A1",
  "about": "“MODULATION OF PODOPLANIN MEDIATED PLATELET ACTIVATION” (OKLAHOMA MEDICAL RESEARCH FOUNDATION, priority 2012, published 2015)",
  "test_system": "NE-Pdpn^−/− mice",
  "assay": "tMCAO-induced ischemia/reperfusion, brain bleeding and Evans blue leakage",
  "type": "in vivo",
  "details": "NE-Pdpn^−/− mice after tMCAO (1.5 hr ischemia and 24 hr reperfusion), 100 mg/kg body weight, i.p., n=2/group, pilot experiment",
  "description": "FIG. 12. […] Gross images of cronal sections of NE− Pdpn^−/− brains. The mice (6-wks-old) were treated either with SEW2871 or DMSO (solvent of SEW2871) immediately after reperfusion. 24 hrs after the reperfusion, mice were intravenously injected with Evans blue, sacrificed and immediately perfused with saline and 4% PFA. Arrows show bleeding. Asterisks show leakage of Evans blue. R, right side (tMCAO side).\nTo determine the role of PDPN in astrocytes in protecting vascular integrity in the adult brain after injury, the inventor has have established a transient middle cerebral artery occlusion (tMCAO)-induced ischemia/reperfusion model that is widely accepted as a model for secondary hemorrhage in human patients with ischemic stroke (Fan et al., 2010). […] In addition, he will include Magnetic Resonance Imaging (MRI) to detect early hemorrhage, monitor its progress, and quantify bleeding volume (every 10 h). […]\nThe S1P receptor S1P1 is highly expressed on vascular endothelial cells (Kono et al., 2004). […] Cerebral vascular permeability/edema will be detected by intravenous injection of Evans blue and the wet/dry ratio of the brains. Vascular integrity will be analyzed by confocal imaging and/or TEM as described in C1.3.3. […]",
  "note": "Entries after “also recorded” stand apart in the source; their conditions may differ.",
  "data": [
    {"smiles": "FC(F)(F)c1cccc(-c2noc(-c3cc(-c4ccccc4)c(C(F)(F)F)s3)n2)c1", "note": "[SEW2871]", "values": [
      {"measurement": "vascular leakage", "setting": "Evans blue", "value": "ameliorated"},
      {"measurement": "brain bleeding", "setting": "100 mg/kg", "value": "ameliorated; also recorded: ameliorates brain bleeding"}
    ]}
  ]
}
